Structures can show the parent of a compound that is named as a salt.
Experiments:
[1] = tested on: PHGDH, PSAT1 and PSPH mRNA in C2C12 myoblasts cocultured with IB115 liposarcoma cells; experiment: Anti-IL-6 assay: RT-qPCR of serine synthesis genes in C2C12 myoblasts cocultured with IB115 cells treated with IL-6 signaling inhibitors; type: cell-based, mouse; conditions: FIG. 11; for PSPH relative mRNA level: co-culture myoblasts with LPS, without inhibitors about 3.1; for PHGDH relative mRNA level / PSAT1 relative mRNA level: co-culture myocytes with LPS; for PHGDH relative mRNA level: without inhibitors 1.6; for PSAT1 relative mRNA level: without inhibitors about 2; for IL-6 dependent enhancement of the serine synthesis way (PHGDH, PSAT, PSPH mRNA): C2C12 myoblasts cocultured with IB115
Description: (§1) Total mRNAs were isolated from myoblasts (C2C12 cells) using TRIzol Reagent (Invitrogen) as previously described (Riscal et al. Mol Cell. 2016 Jun. 16; 62 (6): 890-902). Afterwards, Reverse Transcription of 1 μg mRNA into cDNA was performed using SuperScript III Reverse Transcriptase (Invitrogen), according to the manufacturer protocol. Quantification of the produced cDNA was achieve by Real-time quantitative PCRs on a LightCycler 480 SW 1.5 apparatus (Roche) using SYBR Green mix (Ozyme) plus the oligonucleotides of interest, and the following amplification protocol: 45 cycles of 95° C. for 4 s, 60° C. for 10 s, and 72° C. for 15 s. Analysis of the relative gene expression (mRNA copy number) was realized using Ct values and the 2^−ΔCt method, normalized on at least two different housekeeping genes (TBP, Tubuline, RPL13a, Gus B, β-microglobuline).
Relative quantities of mRNA of MDM2 direct target genes PHGDH, PSAT1 and PSPH were determined by RT-qPCR in C2C12 cells culture alone or in coculture with IB115 cells treated or not with a blocking anti-IL-6 antibody (Wijdenes et al., Mol Immunol, 28 (1991), p. 1183),i.e., IL-6 receptor inhibitor such as Bazedoxifène, or STAT3 inhibitors such as C188-9 and Stattic (mean+/−SD; n=3 independent experiments). Statistical significance was evaluated using non-parametric Mann-Whitney U tests.

[2] = tested on: PHGDH, PSAT1 and PSPH mRNA in C2C12 myoblasts cocultured with IB115 liposarcoma cells; experiment: shRNA assay: RT-qPCR of serine synthesis genes in C2C12 myoblasts cocultured with IB115 cells depleted of human IL-6; type: cell-based, mouse; conditions: FIG. 4, myocytes cultured with LPS (IB115) and treated with shIL-6
Description: as §1
Relative quantities of mRNA of MDM2 direct target genes PHGDH, PSAT1 and PSPH were determined by RT qPCR in C2C12 myoblasts cultured alone or in coculture with IB115 cells treated or not for shRNA mediated depletion of human IL-6 (shIL-6). Data were normalized to the corresponding control samples prepared from IB115 cells treated with a control shRNA (mean SD n=3 independent experiments) Statistical significance was evaluated using non parametric Mann Whitney U tests.

[3] = tested on: cancer cells exhibiting recruitment of MDM2 to chromatin (C-MDM2 (+)); experiment: Cell viability / IC50 measurement (SRB assay) upon SP141 treatment; type: cell-based, human; conditions: FIG. 8; as soon as 24 hours after treatment with low concentrations
Description: Cell survival after SP141, IL-6, IL-6 inhibitor and/or serine/glycine deprived diet treatment (IC50) was determined using the Sulforhodamine B assay (SRB assay). Cells were seeded in 96-well plates (Sarsted) in complete DMEM medium as to obtain triplicates for each conditions (5 000 cells/well). After 24 h, serial dilutions of the indicated compounds were added to the cells. […] Fixed SRB was finally dissolved in 10 mM Tris-HCl solution and 560 nm absorbance was read using a PHERAstar FSX plate reader.

XG-6 cells = experiment: Growth of IL-6 dependent cell line XG-6; type: cell-based; conditions: FIG. 3; RPMI, 2 ng/ml, 3 days; no growth without IL-6
Description: 50 000 XG-6 cells (IL-6 dependent cell line) were seeded in an equal number in four plastic dishes and cultured in suspension in 2 ml of RPMI (Gibco) medium at 37° C./5% CO2 for 3 days. The fourth dishes' conditions are as follows: • XG-6 cells cultured in 2 ml of RPMI in the presence of 2 ng/ml of recombinant IL-6 (obtained with the method illustrated in Wijdenes et al., Mol Immunol, 28 (1991), p. 1183) • XG-6 cells cultured in 2 ml of RPMI, • XG-6 cells cultured in 2 ml of MCF7 cell lines supernatant as previously obtained, • XG-6 cells cultured in 2 ml of IB115 cell lines supernatant as previously obtained.

## Cc1c(-c2ccc(O)cc2)n(Cc2ccc(OCCN3CCCCCC3)cc2)c2ccc(O)cc12 [BZA, 1-[[4-[2-(Hexahydro-1H-azepin-1-yl)ethoxy]phenyl]methyl]-2-(4-hydroxyphenyl)-3-methyl-1H-indol-5-ol monoacetate (salt)]
[1]; 100 nM
  PSPH relative mRNA level: about 1.8 A.U
  PHGDH relative mRNA level: about 0.6 A.U
  PSAT1 relative mRNA level: about 1.3 A.U

## shIL-6: shRNA to inactivate human IL-6 expression; a sequence may be 5′-GACACTATTTTAATTATTTTTAA-3′ (shRNA, chemistry and expression mode not given here, further chemistry not given here)
[2]; myocytes alone about 1, with LPS about 1.75
  relative mRNA level of PSAT: about 1 AU
[2]; myocytes alone about 1, with LPS about 2.5
  relative mRNA level of PSPH: about 1 AU
[2]; myocytes alone about 1, with LPS about 4.4
  relative mRNA level of PHGDH: about 1.75 AU

## COc1ccc2[nH]c3c(-c4cccc5ccccc45)nccc3c2c1 [SP141]
[3]
  cell viability of cancer cells C-MDM2 (+): important loss of cell viability

## COc1ccc(S(=O)(=O)Nc2cc(-c3c(O)ccc4ccccc34)c(O)c3ccccc23)cc1 [C188-9]
[1]; 10 nM
  IL-6 dependent enhancement of the serine synthesis way (PHGDH, PSAT, PSPH mRNA): decreases
  PSPH relative mRNA level: about 1.5 A.U
  PHGDH relative mRNA level: about 0.5 A.U
  PSAT1 relative mRNA level: about 1.3 A.U

## recombinant IL-6: recombinant IL-6 obtained with the method of Wijdenes et al.; positive control for XG-6 growth
XG-6 cells
  Quantity of XG-6 cells: more than 150000 AU

## O=[N+]([O-])c1ccc2c(c1)S(=O)(=O)C=C2 [Stattic]
[1]; 10 nM
  IL-6 dependent enhancement of the serine synthesis way (PHGDH, PSAT, PSPH mRNA): decreases
  PSPH relative mRNA level: about 1.75 A.U
  PSAT1 relative mRNA level: ~1.5 A.U
